We go through one molecule from paper PMC6287599, “2,6-Bis(2-Benzimidazolyl)Pyridine (BBP) Is a Potent and Selective Inhibitor of Small Conductance Calcium-Activated Potassium (SK) Channels” (Frontiers in Pharmacology, 2018).

Structures are written as SMILES. Entries after “also recorded” stand apart in the source; their conditions may differ.

Format in all cases: cell-based
One series concerns the target Kv1.5 (Homo sapiens, UniProt P22460). Kind of series: Two-electrode voltage clamp in Xenopus laevis oocytes, Kv1.5. Particulars: BBP 10 μM, TEVC, n = 5. The procedure: cRNA was prepared from linearized plasmids using the mMESSAGE mMACHINE T7 kit (Ambion, USA) and quantified by UV spectroscopy (NanoDrop, Thermo Scientific, Wilmington, USA). Xenopus laevis oocytes were acquired from EcoCyte Bioscience (Castrop-Rauxel, Germany). Oocytes were injected with 50 nL cRNA and currents were recorded after 2 days of incubation at 19°C. Currents were recorded at a sampling rate of 10 kHz using a TEVC amplifier (Dagan CA-1B; IL, USA), and borosilicate glass recording electrodes (Module Ohm, Herlev, Denmark), made with a DMZ Universal Puller (Zeitz Instruments, Martinsried, Germany) with a resistance of 0.5–1 MΩ when filled with 2 M KCl. Oocytes were superfused with Kulori (pH 7.4) solution containing NaCl 90 mM, KCl 4 mM, MgCl2 1 mM, CaCl2 1 mM, 4-(2-hydroxyethyl)-1-piperazineethanesulfonic acid 5 mM, and currents were elicited with the voltage protocols previously indicated (Skarsfeldt et al., [2016]), from a holding potential of −80 mV. […]
(§1) To assess the effect of BBP on other calcium-activated potassium channels (hBK, hSK3 WT, rSK3 H491N, and hIK), each individual current was first normalized to its cell size using membrane's capacitance (pA/pF) before statistical analysis. […] Statistical significance between saline and the effect of both BBP and the corresponding reference compound was determined for each channel using one-way ANOVA analysis. […]

Another series deals with hERG channel (Homo sapiens, UniProt Q12809). In words: Automated patch clamp, stable CHO cell line expressing hERG. Particulars: BBP 10 μM, automated patch clamp, CHO, n = 5. As to the method: (§2) Three different stable HEK293 cell lines expressing hSK1, hSK2 or hSK3 (NeuroSearch A/S, Ballerup, Denmark) and a CHO stable cell line expressing hERG (University of Copenhagen, Copenhagen, Denmark) were used for automated patch clamp. These cells were cultivated and prepared as previously described (Skarsfeldt et al., [2016]).
(§3) Automated patch clamp (QPatch 16, Sophion, Denmark) on SK-expressing HEK293 cell lines was conducted as previously described (Simó-Vicens et al., [2017b]). Briefly, SK currents were elicited by voltage-ramps starting at −80 mV and finishing at +80 mV from a holding potential of 0 mV. Extracellular solution contained 0.1 mM CaCl2, 3 mM MgCl2, 154 mM KCl, 10 mM HEPES and 10 mM glucose with pH 7.4. Intracellular solution for SK experiments contained 8.106 mM CaCl2 (final free calcium concentration of 400 nM), 1.167 mM MgCl2, 10 mM EGTA, 154 mM KCl, 10 mM HEPES, 31.25/ 10 mM KOH/EGTA and 15 mM KOH with pH 7.2. […]
as §1
For orientation: The patch-clamp technique gives a direct electrical read-out from membranes.

The target in series [1] is hERG channel (against SK channel subtypes hSK1, hSK2, hSK3) (Homo sapiens, UniProt Q12809). Described as above. Particulars: human, CHO cells stably expressing hERG. The procedure:
as §2, §3, §1
For orientation: The hERG channel carries a current that helps repolarise heart muscle cells.

Chain of Kv1.5 (P22460 whole entry, the tested form may be a part): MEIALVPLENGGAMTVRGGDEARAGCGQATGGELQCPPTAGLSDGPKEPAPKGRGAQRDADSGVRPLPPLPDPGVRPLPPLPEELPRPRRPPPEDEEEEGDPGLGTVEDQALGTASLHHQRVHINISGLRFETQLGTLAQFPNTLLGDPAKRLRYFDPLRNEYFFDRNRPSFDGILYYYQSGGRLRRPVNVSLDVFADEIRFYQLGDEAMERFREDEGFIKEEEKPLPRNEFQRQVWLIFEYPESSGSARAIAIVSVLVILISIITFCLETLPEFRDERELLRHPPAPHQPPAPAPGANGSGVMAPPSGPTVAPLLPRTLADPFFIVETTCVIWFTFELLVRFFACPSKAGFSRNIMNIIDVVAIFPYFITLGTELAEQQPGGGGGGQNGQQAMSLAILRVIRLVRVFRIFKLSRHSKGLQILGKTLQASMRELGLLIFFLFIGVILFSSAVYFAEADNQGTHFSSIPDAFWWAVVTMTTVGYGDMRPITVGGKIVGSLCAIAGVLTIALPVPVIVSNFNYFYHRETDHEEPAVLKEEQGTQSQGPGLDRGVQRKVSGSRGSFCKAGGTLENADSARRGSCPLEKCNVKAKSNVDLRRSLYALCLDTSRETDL
Chain of hERG channel (against SK channel subtypes hSK1, hSK2, hSK3) (Q12809 whole entry): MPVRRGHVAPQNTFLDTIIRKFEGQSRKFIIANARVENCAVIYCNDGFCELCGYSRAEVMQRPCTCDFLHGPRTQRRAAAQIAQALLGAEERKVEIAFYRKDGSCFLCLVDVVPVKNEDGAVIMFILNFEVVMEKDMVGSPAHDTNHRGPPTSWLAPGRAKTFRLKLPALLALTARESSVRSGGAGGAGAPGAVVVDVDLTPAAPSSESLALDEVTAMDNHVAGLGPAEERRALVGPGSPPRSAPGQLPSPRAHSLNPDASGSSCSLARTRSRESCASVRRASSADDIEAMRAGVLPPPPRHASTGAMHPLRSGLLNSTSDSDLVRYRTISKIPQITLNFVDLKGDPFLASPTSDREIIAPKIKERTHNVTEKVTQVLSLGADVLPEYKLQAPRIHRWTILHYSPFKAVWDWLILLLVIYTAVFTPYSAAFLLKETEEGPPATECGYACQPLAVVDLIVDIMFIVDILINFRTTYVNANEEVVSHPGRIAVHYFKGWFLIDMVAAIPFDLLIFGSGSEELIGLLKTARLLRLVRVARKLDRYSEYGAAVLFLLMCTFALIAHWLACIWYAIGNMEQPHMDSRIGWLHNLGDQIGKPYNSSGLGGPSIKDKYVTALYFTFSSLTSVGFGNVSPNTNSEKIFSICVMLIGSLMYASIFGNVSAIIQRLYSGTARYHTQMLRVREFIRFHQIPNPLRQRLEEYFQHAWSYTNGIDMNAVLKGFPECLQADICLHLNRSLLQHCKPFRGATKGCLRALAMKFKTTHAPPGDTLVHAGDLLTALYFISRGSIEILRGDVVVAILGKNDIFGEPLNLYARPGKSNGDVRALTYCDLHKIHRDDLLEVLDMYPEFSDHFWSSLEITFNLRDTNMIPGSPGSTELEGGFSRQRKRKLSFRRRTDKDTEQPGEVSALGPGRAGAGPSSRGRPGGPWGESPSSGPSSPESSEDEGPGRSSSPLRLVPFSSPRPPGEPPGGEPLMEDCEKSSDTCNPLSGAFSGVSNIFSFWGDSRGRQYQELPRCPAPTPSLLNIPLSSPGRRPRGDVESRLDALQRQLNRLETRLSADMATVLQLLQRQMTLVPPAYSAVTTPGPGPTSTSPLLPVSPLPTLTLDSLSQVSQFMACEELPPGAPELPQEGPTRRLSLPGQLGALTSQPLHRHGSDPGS
Chain of hERG channel (Q12809 whole entry): as above

With `c1cc(-c2nc3ccccc3[nH]2)nc(-c2nc3ccccc3[nH]2)c1` [BBP, 2,6-Bis(2-benzimidazolyl)pyridine], the “Effect on Kv1.5 current” value at Kv1.5 was “did not have any effect; also recorded: did not significantly affect”. Besides, the “Reduction of hERG current” value on hERG channel is 19 ± 3%. For the same molecule, in series [1], the selectivity ratio amounted to 46.
